# Activity calls are given as the source filed them. The rule behind the calls is not given here.
# How the values were obtained:
# Nucleic Acid [1] = test: Inhibition of NM23-H2 interaction with c-myc DNA G-quadruplex in human HeLa cells assessed as inhibition of c-myc expression at 0.1 uM measured by quantitative RT-PCR analysis; type: cell-based
# [2] = biological target: Telomerase reverse transcriptase (Homo sapiens) (UniProt O14746); test: […] in human Ramos cells at 0.05 uM for 16 days by TRF length assay; type: cell-based
# Telomerase reverse transcriptase (Homo sapiens), sequence (O14746 whole entry): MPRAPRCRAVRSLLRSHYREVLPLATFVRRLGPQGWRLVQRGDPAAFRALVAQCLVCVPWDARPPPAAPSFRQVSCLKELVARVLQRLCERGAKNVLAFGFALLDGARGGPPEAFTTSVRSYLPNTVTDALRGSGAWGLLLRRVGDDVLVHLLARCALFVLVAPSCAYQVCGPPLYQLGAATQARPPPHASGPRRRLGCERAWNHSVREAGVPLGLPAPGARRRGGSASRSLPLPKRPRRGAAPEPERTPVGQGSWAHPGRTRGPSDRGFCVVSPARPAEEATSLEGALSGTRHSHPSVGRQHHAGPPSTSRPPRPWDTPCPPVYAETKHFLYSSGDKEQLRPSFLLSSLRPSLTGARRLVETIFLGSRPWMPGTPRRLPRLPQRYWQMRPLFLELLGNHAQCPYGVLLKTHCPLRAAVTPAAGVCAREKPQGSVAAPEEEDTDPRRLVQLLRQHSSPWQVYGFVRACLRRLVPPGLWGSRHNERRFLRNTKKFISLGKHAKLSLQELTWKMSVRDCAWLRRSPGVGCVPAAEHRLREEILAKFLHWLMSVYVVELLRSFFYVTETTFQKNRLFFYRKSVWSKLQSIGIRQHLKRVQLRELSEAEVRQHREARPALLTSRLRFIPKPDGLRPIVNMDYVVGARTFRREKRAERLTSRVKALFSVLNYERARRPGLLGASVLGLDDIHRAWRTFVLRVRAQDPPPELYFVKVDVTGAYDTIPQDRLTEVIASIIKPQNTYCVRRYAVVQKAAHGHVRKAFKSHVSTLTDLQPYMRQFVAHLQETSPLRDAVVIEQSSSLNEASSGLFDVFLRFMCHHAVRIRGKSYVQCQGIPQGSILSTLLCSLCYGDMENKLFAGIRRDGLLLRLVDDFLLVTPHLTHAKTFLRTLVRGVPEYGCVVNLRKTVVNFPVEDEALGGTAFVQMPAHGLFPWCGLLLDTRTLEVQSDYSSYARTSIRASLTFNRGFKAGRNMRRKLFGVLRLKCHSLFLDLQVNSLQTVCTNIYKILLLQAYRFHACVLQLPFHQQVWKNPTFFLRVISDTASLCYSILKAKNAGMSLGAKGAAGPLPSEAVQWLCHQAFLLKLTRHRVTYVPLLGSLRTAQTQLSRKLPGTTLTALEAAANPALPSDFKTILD
# Nucleic Acid [3] = test: Binding affinity to c-myc Pu27 DNA G-quadruplex in human CA46 cells assessed as down regulation of TERT transcription at 0.1 uM after 4 days by qRT-PCR; type: cell-based
# Ramos [4] = test: Antiproliferative activity against human Ramos cells assessed as cell viability at 0.05 uM after 20 days; type: functional, cell-based
# Nucleic Acid [5] = test: Binding affinity to G-quadruplex HTG21 by PCR stop assay; type: nucleic-acid assay
# Nucleic Acid [6] = test: Binding affinity to c-myc Pu27 DNA G-quadruplex assessed as change in melting temperature by FRET assay; type: nucleic-acid assay
# [7] = biological target: Telomerase reverse transcriptase (Homo sapiens) (UniProt O14746); test: […] in human Ramos cells at 0.05 to 0.1 uM for 16 days by TRF length assay; type: cell-based
# Nucleic Acid [8] = test: Binding affinity to c-myc Pu27 DNA G-quadruplex in human CA46 cells assessed as down regulation of c-myc protein expression at 0.05 to 0.1 uM after 4 days by Western blot method; type: cell-based
# [9] = Cytotoxicity in human CNE2 cells by MTT assay; type: functional, cell-based; conditions: CNE-2
# Nucleic Acid [10] = test: Binding affinity to G-quadruplex HTG21 assessed as change in melting temperature by FRET assay; type: nucleic-acid assay
# [11] = Cytotoxicity in human GLC82 cells by MTT assay; type: functional, cell-based
# Bel-7402 = test: Cytotoxicity in human Bel7402 cells by MTT assay; type: functional, cell-based
# CA46 [12] = test: Induction of senescence in human CA46 cells assessed as flat cells at 0.05 to 0.1 uM after 16 days by beta galactosidase assay; type: functional, cell-based
# CA46 [13] = test: Antiproliferative activity against cmyc NHE III1 element-deficient human CA46 cells assessed as cell viability after 20 days; type: functional, cell-based
# Nucleic Acid [14] = test: Inhibition of NM23-H2 interaction with wild type c-myc DNA G-quadruplex expressed in human HeLa cells assessed as dissociation of NM23-H2 from c-myc promoter at 0.05 to 0.1 uM by Ch-IP assay; type: cell-based
# Nucleic Acid [15] = test: Inhibition of NM23-H2 interaction with c-myc mutant promoter DNA expressed in human HeLa cells assessed as dissociation of NM23-H2 from c-myc promoter at 0.05 to 0.1 uM by Ch-IP assay; type: cell-based
# MGC-803 = test: Cytotoxicity in human MGC803 cells by MTT assay; type: functional, cell-based
# Ramos [16] = test: Antiproliferative activity against human Ramos cells assessed as cell viability after 20 days; type: functional, cell-based
# Nucleic Acid [17] = test: Binding affinity to c-myc Pu27 DNA G-quadruplex in human Ramos cells assessed as down regulation of TERT transcription at 0.1 uM after 4 days by qRT-PCR; type: cell-based
# Nucleic Acid [18] = test: Binding affinity to c-myc Pu27 DNA G-quadruplex by PCR stop assay; type: nucleic-acid assay
# HeLa = test: Cytotoxicity in human HeLa cells by MTT assay; type: functional, cell-based
# CA46 [19] = test: Induction of senescence in human CA46 cells assessed as gaint cells at 0.05 to 0.1 uM after 16 days by beta galactosidase assay; type: functional, cell-based
# Nucleic Acid [20] = test: Binding affinity to c-myc Pu27 DNA G-quadruplex in human Ramos cells assessed as down regulation of c-myc protein expression at 0.05 to 0.1 uM after 4 days by Western blot method; type: cell-based
# Nucleic Acid [21] = test: Binding affinity to c-myc Pu27 DNA G-quadruplex in human Ramos cells assessed as down regulation of TERT protein expression at 0.05 to 0.1 uM after 4 days by Western blot method; type: cell-based
# Nucleic Acid [22] = test: Binding affinity to G-quadruplex HTG21 by ITC titration assay; type: nucleic-acid assay
# K562 = test: Cytotoxicity in human K562 cells by MTT assay; type: functional, cell-based
# Ramos [23] = test: Induction of senescence in human Ramos cells assessed as flat cells at 0.05 to 0.1 uM after 16 days by beta galactosidase assay; type: functional, cell-based
# Nucleic Acid [24] = test: Binding affinity to c-myc Pu27 DNA G-quadruplex by ITC titration assay; type: nucleic-acid assay
# HL-60 = test: Cytotoxicity in human HL60 cells by MTT assay; type: functional, cell-based
# Nucleic Acid [25] = test: Binding affinity to c-myc Pu27 DNA G-quadruplex in human Ramos cells assessed as down regulation of c-myc transcription at 0.1 uM after 4 days by qRT-PCR; type: cell-based
# [26] = biological target: Telomerase reverse transcriptase (Homo sapiens) (UniProt O14746); test: […] in human Ramos cells at 0.1 uM for 16 days by TRF length assay; type: cell-based
# Nucleic Acid [27] = test: Inhibition of POT1 interaction with wild type c-myc DNA G-quadruplex expressed in human HeLa cells assessed as dissociation of POT1 from c-myc promoter at 0.05 to 0.1 uM by Ch-IP assay; type: cell-based
# Nucleic Acid [28] = test: Binding affinity to c-myc Pu27 DNA G-quadruplex in human CA46 cells assessed as down regulation of c-myc transcription at 0.1 uM after 4 days by qRT-PCR; type: cell-based
# [29] = Cytotoxicity in human SUNE1 cells by MTT assay; type: functional, cell-based
# Ramos [30] = test: Induction of senescence in human Ramos cells assessed as gaint cells at 0.05 to 0.1 uM after 16 days by beta galactosidase assay; type: functional, cell-based
smiles,measurement,setting,value
CN(C)CCCNc1c2ccccc2nc2c1[nH]c1ccccc12,inhibition,Nucleic Acid [1],Active
same,inhibition,[2],Active
same,Activity,Nucleic Acid [3],inactive
same,Activity,Ramos [4],Active
same,IC50,Nucleic Acid [5],2500 nM
same,ΔTm,Nucleic Acid [6],13 °C
same,inhibition,[7],Active
same,Activity,Nucleic Acid [8],Active
same,IC50,[9],240 nM
same,ΔTm,Nucleic Acid [10],10 °C
same,IC50,[11],240 nM
same,IC50,Bel-7402,240 nM
same,Activity,CA46 [12],inactive
same,inhibition,CA46 [13],inactive
same,inhibition,Nucleic Acid [14],Active
same,inhibition,Nucleic Acid [15],inactive
same,IC50,MGC-803,240 nM
same,Activity,Ramos [16],Dose-dependent effect
same,Activity,Nucleic Acid [17],Active
same,IC50,Nucleic Acid [18],1800 nM
same,IC50,HeLa,240 nM
same,Activity,CA46 [19],inactive
same,Activity,Nucleic Acid [20],Active
same,Activity,Nucleic Acid [21],Active
same,Ka,Nucleic Acid [22],1.79 10^4 M^-1
same,IC50,K562,240 nM
same,Activity,Ramos [23],Active
same,Ka,Nucleic Acid [24],4.03 10^4 M^-1
same,IC50,HL-60,240 nM
same,Activity,Nucleic Acid [25],Active
same,inhibition,[26],Active
same,inhibition,Nucleic Acid [27],inactive
same,Activity,Nucleic Acid [28],inactive
same,IC50,[29],240 nM
same,Activity,Ramos [30],Active

# Source: ChEMBL document CHEMBL2150884, “Inhibition of cell proliferation by quindoline derivative (SYUIQ-05) through its preferential interaction with c-myc promoter G-quadruplex” (J Med Chem, 2011)
